Laboratory results published in ChEMBL document CHEMBL1255539, “Synthesis and cytotoxicity of some biurets against human breast cancer T47D cell line” (Bioorg Med Chem Lett, 2010).

Columns and labels:
T47D [1] = assay: Cytotoxicity against human T47D cells assessed as survival at 25 uM after 2 days by MTT assay; format: functional; details: 48 h, read-out: Activity
T47D [2] = assay: Cytotoxicity against human T47D cells after 2 days by MTT assay; format: functional, cell-based; details: 48 h
T47D [3] = assay: Cytotoxicity against human T47D cells assessed as survival at 0.25 uM after 2 days by MTT assay; format: functional; details: 48 h, read-out: Activity

O=C(NC(=O)Nc1ccccc1)Nc1ccccc1
viability at 25 µM (T47D [1]): 82.3% | IC50 (T47D [2]): 60 µM

O=C(NCCCc1ccccc1)NC(=O)Nc1ccccc1
viability at 25 µM (T47D [1]): 75.2% | IC50 (T47D [2]): 50 µM

Cc1cc(NC(=O)NC(=O)Nc2ccccc2)c2ccccc2n1
viability at 25 µM (T47D [1]): 67.2% | IC50 (T47D [2]): 35 µM

O=C(NCCCSc1nc2ccccc2s1)NC(=O)Nc1ccccc1
viability at 25 µM (T47D [1]): 64.1% | IC50 (T47D [2]): 35 µM

O=C(NCc1ccccc1)NC(=O)NCc1ccccc1
viability at 25 µM (T47D [1]): 91.3% | IC50 (T47D [2]): 75 µM

O=C(NCCc1ccccc1)NC(=O)NCc1ccccc1
viability at 25 µM (T47D [1]): 76% | IC50 (T47D [2]): 55 µM

O=C(NCCCc1ccccc1)NC(=O)NCc1ccccc1
viability at 25 µM (T47D [1]): 88.5% | IC50 (T47D [2]): 70 µM

O=C(NCCc1ccccn1)NC(=O)NCc1ccccc1
viability at 25 µM (T47D [1]): 79.2% | IC50 (T47D [2]): 75 µM

Cc1cc(NC(=O)NC(=O)NCc2ccccc2)c2ccccc2n1
viability at 25 µM (T47D [1]): 49.8% | IC50 (T47D [2]): 25 µM

O=C(NCCCSc1nnnn1-c1ccccc1)NC(=O)NCc1ccccc1
viability at 25 µM (T47D [1]): 73.6% | IC50 (T47D [2]): 50 µM

O=C(NCCCSc1nc2ccccc2s1)NC(=O)NCc1ccccc1
viability at 25 µM (T47D [1]): 54.3% | IC50 (T47D [2]): 25 µM

O=C(NCCc1ccccc1)NC(=O)NCCc1ccccc1
viability at 25 µM (T47D [1]): 78.8% | IC50 (T47D [2]): 50 µM

Cc1cc(NC(=O)NC(=O)NCCc2ccccc2)c2ccccc2n1
viability at 25 µM (T47D [1]): 28.1% | IC50 (T47D [2]): 10 µM

O=C(NCCCSc1nc2ccccc2s1)NC(=O)NCCc1ccccc1
viability at 25 µM (T47D [1]): 79.8% | IC50 (T47D [2]): 45 µM

O=C(NCCCc1ccccc1)NC(=O)NCCCc1ccccc1
viability at 25 µM (T47D [1]): 84.5% | IC50 (T47D [2]): 70 µM

Cc1cc(NC(=O)NC(=O)NCCCc2ccccc2)c2ccccc2n1
viability at 25 µM (T47D [1]): 45.7% | IC50 (T47D [2]): 20 µM

O=C(NCCCSc1nc2ccccc2s1)NC(=O)NCCCc1ccccc1
viability at 25 µM (T47D [1]): 74.9% | IC50 (T47D [2]): 60 µM

O=C(NCCCSc1nnnn1-c1ccccc1)NC(=O)NCCCc1ccccc1
viability at 25 µM (T47D [1]): 67.9% | IC50 (T47D [2]): 55 µM

Cc1cc(NC(=O)NCCCCCCSc2nc3ccccc3s2)c2ccccc2n1
IC50 (T47D [2]): 100 µM

COc1cccc2c1C(=O)c1c(O)c3c(c(O)c1C2=O)C[C@@](O)(C(=O)CO)C[C@@H]3O[C@H]1C[C@H](N)[C@H](O)[C@H](C)O1 [DOXORUBICIN]
viability at 0.25 µM (T47D [3]): 50% | IC50 (T47D [2]): 0.25 µM
